Experimental data: patent US20250195530A1, “POLQ INHIBITORS” (ASTRAZENECA AB, priority 2022, published 2025)

Test system: DLD-1 BRCA2−/− cells
Test: Homologous recombination synthetic lethal inhibition of proliferation, DLD-1 BRCA2-/- (Cell Titre Glo 3D)
Type: cell-based
Settings: Homo sapiens, DLD-1, first proliferation column (c5), taken as DLD-1 BRCA2-/-; read-out: POLQ PD Prolif Lumin (converted)
Method in brief: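 Luminescent Cell Titre Glo 3D readout, taken on day 12 for homologous-recombination-deficient DLD-1 BRCA2−/− and day 7 for the wild-type control, after compound refresh on day 6. Compounds spanned 10 μM to 0.51 nM in three-fold steps; IC50 defined as 50% reduction of average maximum signal.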

In the case of `C[C@@H](OCCOc1ccc(-c2nc3c(OC4(C)CC4)ncnc3n2Cc2cccc(Cl)c2)c(Cl)c1)C(=O)O` [Example T306, (R)-2-(2-(3-chloro-4-(9-(3-chlorobenzyl)-6-(1-methylcyclopropoxy)-9H-purin-8-yl)phenoxy)ethoxy)propanoic acid], the IC50 is reported as 794 nM.
Compound `Cc1ccnc(Cn2c(-c3ccc(C(=O)N4CCCC4)cc3Cl)nc3c(OC4(C)CC4)ncnc32)c1` [Example T309, (3-chloro-4-(6-(1-methylcyclopropoxy)-9-((4-methylpyridin-2-yl)methyl)-9H-purin-8-yl)phenyl)(pyrrolidin-1-yl)methanone] has an IC50 of 631 nM.
`Cc1ccnc(Cn2c(-c3ccc(OCC(=O)N4CCC4)cc3Cl)nc3c(OC4(C)CC4)ncnc32)c1` [Example T312, 1-(azetidin-1-yl)-2-(3-chloro-4-(6-(1-methylcyclopropoxy)-9-((4-methylpyridin-2-yl)methyl)-9H-purin-8-yl)phenoxy)ethan-1-one] was tested, and the IC50 was 200 nM.
Compound `Cc1ccnc(Cn2c(-c3ccc(OCCN4CCC4=O)cc3Cl)nc3c(OC4(C)CC4)ncnc32)c1` [Example T313, 1-(2-(3-chloro-4-(6-(1-methylcyclopropoxy)-9-((4-methylpyridin-2-yl)methyl)-9H-purin-8-yl)phenoxy)ethyl)azetidin-2-one] has an IC50 of 200 nM.
`Cc1ccnc(Cn2c(-c3ccc(C(=O)N4CC(C)(O)C4)cc3Cl)nc3c(OC4(C)CC4)ncnc32)c1` [Example T314, (3-chloro-4-(6-(1-methylcyclopropoxy)-9-((4-methylpyridin-2-yl)methyl)-9H-purin-8-yl)phenyl)(3-hydroxy-3-methylazetidin-1-yl)methanone] gave an IC50 of 1260 nM.
`Cc1ccnc(Cn2c(-c3ccc(C(=O)N4CCOCC4)cc3Cl)nc3c(OC4(C)CC4)ncnc32)c1` [Example T315, (3-chloro-4-(6-(1-methylcyclopropoxy)-9-((4-methylpyridin-2-yl)methyl)-9H-purin-8-yl)phenyl)(morpholino)methanone] gave an IC50 of 1580 nM.
`Cc1ccnc(Cn2c(-c3ccc(C(=O)N[C@@H]4CCOC4)cc3Cl)nc3c(OC4(C)CC4)ncnc32)c1` [Example T316, (R)-3-chloro-4-(6-(1-methylcyclopropoxy)-9-((4-methylpyridin-2-yl)methyl)-9H-purin-8-yl)-N-(tetrahydrofuran-3-yl)benzamide] was tested, and the IC50 was 631 nM.
In the case of `Cc1ccnc(Cn2c(-c3ccc(C(=O)NC4(C)COC4)cc3Cl)nc3c(OC4(C)CC4)ncnc32)c1` [Example T317, 3-chloro-4-(6-(1-methylcyclopropoxy)-9-((4-methylpyridin-2-yl)methyl)-9H-purin-8-yl)-N-(3-methyloxetan-3-yl)benzamide], the IC50 is reported as 1000 nM.
Work on `Cc1ccnc(Cn2c(-c3ccc(OCC(=O)NC4CC4)cc3Cl)nc3c(OC4(C)CC4)ncnc32)c1` [Example T318, 2-(3-chloro-4-(6-(1-methylcyclopropoxy)-9-((4-methylpyridin-2-yl)methyl)-9H-purin-8-yl)phenoxy)-N-cyclopropylacetamide] yielded an IC50 of 398 nM.
`Cc1ccnc(Cn2c(-c3ccc(C(=O)NC4CC(O)C4)cc3Cl)nc3c(OC4(C)CC4)ncnc32)c1` (stereo not drawn) [Example T319, 3-chloro-N-(3-hydroxycyclobutyl)-4-(6-(1-methylcyclopropoxy)-9-((4-methylpyridin-2-yl)methyl)-9H-purin-8-yl)benzamide] was tested, and the IC50 was 2510 nM.
Work on `Cc1ccnc(Cn2c(-c3ccc(C(=O)N(C)C4COC4)cc3Cl)nc3c(OC4(C)CC4)ncnc32)c1` [Example T320, 3-chloro-N-methyl-4-(6-(1-methylcyclopropoxy)-9-((4-methylpyridin-2-yl)methyl)-9H-purin-8-yl)-N-(oxetan-3-yl)benzamide] yielded an IC50 of 3160 nM.
Compound `Cc1ccnc(Cn2c(-c3ccc(OCC(=O)N4CC(O)C4)cc3Cl)nc3c(OC4(C)CC4)ncnc32)c1` [Example T322, 2-(3-chloro-4-(6-(1-methylcyclopropoxy)-9-((4-methylpyridin-2-yl)methyl)-9H-purin-8-yl)phenoxy)-1-(3-hydroxyazetidin-1-yl)ethan-1-one] has an IC50 of 631 nM.
In the case of `Cc1ccnc(Cn2c(-c3ccc(OCC(=O)NC4COC4)cc3Cl)nc3c(OC4(C)CC4)ncnc32)c1` [Example T323, 2-(3-chloro-4-(6-(1-methylcyclopropoxy)-9-((4-methylpyridin-2-yl)methyl)-9H-purin-8-yl)phenoxy)-N-(oxetan-3-yl)acetamide], the IC50 is reported as 200 nM.
For `Cc1ccnc(Cn2c(-c3ccc(OC[C@@H]4CNC(=O)CO4)cc3Cl)nc3c(OC4(C)CC4)ncnc32)c1` [Example T324, (S)-6-((3-chloro-4-(6-(1-methylcyclopropoxy)-9-((4-methylpyridin-2-yl)methyl)-9H-purin-8-yl)phenoxy)methyl)morpholin-3-one], the IC50 was 398 nM.
`CC1(Oc2ncnc3c2nc(-c2cccc(OCCCC(=O)NS(C)(=O)=O)c2Cl)n3Cc2cccc(Cl)c2)CC1` [Example T325, 4-(2-chloro-3-(9-(3-chlorobenzyl)-6-(1-methylcyclopropoxy)-9H-purin-8-yl)phenoxy)-N-(methylsulfonyl)butanamide] gave an IC50 of 316 nM.
With `Cc1ccnc(Cn2c(-c3ccc(OCC(=O)NC[C@H](C)F)cc3Cl)nc3c(OC4(C)CC4)ncnc32)c1` [Example T327, (S)-2-(3-chloro-4-(6-(1-methylcyclopropoxy)-9-((4-methylpyridin-2-yl)methyl)-9H-purin-8-yl)phenoxy)-N-(2-fluoropropyl)acetamide] the IC50 was 200 nM.
`Cc1ccnc(Cn2c(-c3ccc(OCC(=O)NCCCF)cc3Cl)nc3c(OC4(C)CC4)ncnc32)c1` [Example T328, 2-(3-chloro-4-(6-(1-methylcyclopropoxy)-9-((4-methylpyridin-2-yl)methyl)-9H-purin-8-yl)phenoxy)-N-(3-fluoropropyl)acetamide] showed an IC50 of 398 nM.
`COC1(COc2ccc(-c3nc4c(OC5(C)CC5)ncnc4n3Cc3cc(C)ccn3)c(Cl)c2)COC1` [Example T333, 8-(2-chloro-4-((3-methoxyoxetan-3-yl)methoxy)phenyl)-6-(1-methylcyclopropoxy)-9-((4-methylpyridin-2-yl)methyl)-9H-purine] was tested, and the IC50 was 251 nM.
Compound `Cc1ccnc(Cn2c(-c3ccc(OCCC4(O)COC4)cc3Cl)nc3c(OC4(C)CC4)ncnc32)c1` [Example T334, 3-(2-(3-chloro-4-(6-(1-methylcyclopropoxy)-9-((4-methylpyridin-2-yl)methyl)-9H-purin-8-yl)phenoxy)ethyl)oxetan-3-ol] has an IC50 of 251 nM.
`Cc1ccnc(Cn2c(-c3ccc(N4CCNCCC4=O)cc3Cl)nc3c(OC4(C)CC4)ncnc32)c1` [Example T338, 4-(3-chloro-4-(6-(1-methylcyclopropoxy)-9-((4-methylpyridin-2-yl)methyl)-9H-purin-8-yl)phenyl)-1,4-diazepan-5-one] gave an IC50 of 2000 nM.
In the case of `Cc1ccnc(Cn2c(-c3ccc(N4CCNC(=O)CC4)cc3Cl)nc3c(OC4(C)CC4)ncnc32)c1` [Example T339, 1-(3-chloro-4-(6-(1-methylcyclopropoxy)-9-((4-methylpyridin-2-yl)methyl)-9H-purin-8-yl)phenyl)-1,4-diazepan-5-one], the IC50 is reported as 501 nM.
With `Cc1ccnc(Cn2c(-c3ccc(N4CC[C@H](C(N)=O)C4)cc3Cl)nc3c(OC4(C)CC4)ncnc32)c1` [Example T340, (S)-1-(3-chloro-4-(6-(1-methylcyclopropoxy)-9-((4-methylpyridin-2-yl)methyl)-9H-purin-8-yl)phenyl)pyrrolidine-3-carboxamide] the IC50 was 1260 nM.
Compound `CNC(=O)C1CN(c2ccc(-c3nc4c(OC5(C)CC5)ncnc4n3Cc3cc(C)ccn3)c(Cl)c2)C1` [Example T341, 1-(3-chloro-4-(6-(1-methylcyclopropoxy)-9-((4-methylpyridin-2-yl)methyl)-9H-purin-8-yl)phenyl)-N-methylazetidine-3-carboxamide] has an IC50 of 316 nM.
With `CNC(=O)N1CC(Oc2ccc(-c3nc4c(OC5(C)CC5)ncnc4n3Cc3cc(C)ccn3)c(Cl)c2)C1` [Example T343, 3-(3-chloro-4-(6-(1-methylcyclopropoxy)-9-((4-methylpyridin-2-yl)methyl)-9H-purin-8-yl)phenoxy)-N-methylazetidine-1-carboxamide] the IC50 was 398 nM.
Compound `Cc1ccnc(Cn2c(-c3ccc(O[C@@H]4CCN(C(N)=O)C4)cc3Cl)nc3c(OC4(C)CC4)ncnc32)c1` [Example T344, (R)-3-(3-chloro-4-(6-(1-methylcyclopropoxy)-9-((4-methylpyridin-2-yl)methyl)-9H-purin-8-yl)phenoxy)pyrrolidine-1-carboxamide] has an IC50 of 2000 nM.
Compound `CC1(Oc2ncnc3c2nc(-c2ccc(OCCN4CCNCC4)cc2Cl)n3Cc2ccc(F)cn2)CC1` [Example T350, 8-(2-chloro-4-(2-(piperazin-1-yl)ethoxy)phenyl)-9-((5-fluoropyridin-2-yl)methyl)-6-(1-methylcyclopropoxy)-9H-purine] has an IC50 of 2510 nM.
Compound `CC1(Oc2ncnc3c2nc(-c2ccc(OCCN4CCNCC4)cc2Cl)n3Cc2ncccc2F)CC1` [Example T351, 8-(2-chloro-4-(2-(piperazin-1-yl)ethoxy)phenyl)-9-((3-fluoropyridin-2-yl)methyl)-6-(1-methylcyclopropoxy)-9H-purine] has an IC50 of 3160 nM.
Work on `Cc1ccnc(Cn2c(-c3ccc(CCC(=O)N(C)C)cc3Cl)nc3c(OC4(C)CC4)ncnc32)c1` [Example T358, 3-(3-chloro-4-(6-(1-methylcyclopropoxy)-9-((4-methylpyridin-2-yl)methyl)-9H-purin-8-yl)phenyl)-N,N-dimethylpropanamide] yielded an IC50 of 251 nM.
Work on `CC[C@H](CO)NC(=O)c1ccc(-c2nc3c(OC4(C)CC4)ncnc3n2Cc2cc(C)ccn2)c(Cl)c1` [Example T361, (R)-3-chloro-N-(1-hydroxybutan-2-yl)-4-(6-(1-methylcyclopropoxy)-9-((4-methylpyridin-2-yl)methyl)-9H-purin-8-yl)benzamide] yielded an IC50 of 631 nM.
In the case of `Cc1ccnc(Cn2c(-c3ccc(C(=O)NC(C)(C)CO)cc3Cl)nc3c(OC4(C)CC4)ncnc32)c1` [Example T362, 3-chloro-N-(1-hydroxy-2-methylpropan-2-yl)-4-(6-(1-methylcyclopropoxy)-9-((4-methylpyridin-2-yl)methyl)-9H-purin-8-yl)benzamide], the IC50 is reported as 631 nM.
